Measured values published in patent publication US20040141912A1, “Method for targeting chemical compounds to cells and pharmaceutical compositions used therein” (priority 2001, published 2004).
“Also recorded” adds a separate entry of the source.

Tests used:
[1] = system: Jurkat cells; experiment: FACS analysis of DDC uptake by Jurkat cells induced to undergo apoptosis by staurosporine; format: cell-based, human
Procedure: FIG. 8: Jurkat cells were induced to undergo apoptosis by treatment with staurosporine. Subsequently, these cells were treated with DDC. The relative change in DDC uptake by cells in early versus late stages of apoptosis, following induction and inhibition of the PLS system is presented. Shown are the percents of positive early or late apoptotic events (mean values), calculated from 3 independent experiments, and wherein the events (either early or late) observed in apoptotic culture are regarded as 100%. Selective accumulation of DDC in early, but not in late apoptotic cells was detected as a result of staurosporine treatment. Ca^2+-deprivation or rottlerin treatment were performed as described in FIG. 1.
The selective uptake of DDC by apoptotic cells is not dependent upon the type of apoptotic trigger. […] Staurosporine acts in an apoptotic pathway which is largely distinct from that of anti-Fas Ab. Jurkat cells were grown as described in Example 1, and were subsequently treated for 4 hours with 1 μM of staurosporine (S4400; Sigma, USA). After induction of apoptosis, cells were treated with DDC (250 μM) for 5 minutes, and were then co-stained with PI and subjected to FACS analysis. Non-treated cells served as control.

[2] = system: Jurkat cells; experiment: FACS analysis of DDC uptake by Jurkat cells induced to undergo apoptosis by anti-Fas antibody (PI co-staining); format: cell-based, human
Procedure: FIG. 3: Cultured Jurkat cells (A) were induced to undergo apoptosis by anti-Fas antibody (0.1 μg/ml) for three hours. Subsequently, both control cells (A and C) and apoptotic cells (B and D) were then incubated with 50 μM of DDC in the presence (C and D) and absence (A and B) of 1 μM of rottlerin, an inhibitor of PKCδ. Prior to FACS analysis, cells were also co-stained with propidium iodide (PI), a marker of membrane disintegration during late phases of cell death. In the shown dot plot, the left lower quadrant represents the healthy, non-stained fraction of cells. The right lower quadrant represents the newly formed population of cells in the early stages of apoptosis. These cells are PLS-activated cells, yet still maintaining membrane integrity and thus excluding PI. Cells binding both DDC and PI, i.e., cells in the late stages of apoptosis are represented in the right upper quadrant. The induction of apoptosis was associated with the emergence of a marked, distinct population of cells in the early stages of the apoptotic process, selectively binding DDC and occupying the right lower quadrant of the plot. […] UV axis denotes fluorescence intensity of DDC; FL2 axis denotes fluorescence intensity of PI.
FIG. 4: Jurkat cells were induced to undergo apoptosis by treatment with anti-Fas Ab (0.1 μg/ml) for three hours. Subsequently, cells were co-incubated with 50 μM of DDC and PI, in the presence of 1 mM of CaCl2, or under conditions of calcium deprivation (i.e., co-administration of the calcium chelators BAPTA and EGTA). Binding of DDC and PI was evaluated by FACS.
FIG. 4A: A and C: control cells; B and D: apoptotic cells; A and B: with Ca^2+; C and D: deprivation of Ca^2+. The lower left quadrant in each dot plot represents the healthy non-stained fraction of cells. The lower right quadrant represents the newly formed population of cells in the early stages of apoptosis, characterized by activation of PLS, but still maintaining membrane integrity. […] However, DDC binding to the cells in early apoptosis was markedly lost upon inhibition of PLS by calcium deprivation (B versus D).
Cultured Jurkat cells were grown as described in Example 1, and apoptosis was then triggered by treatment with anti-Fas Ab (0.1 μg/ml) for three hours, thus inducing […] activation in these cells.
In order to inhibit PLS activity in the apoptotic cells, rottlerin was used (Calbiochem, Germany). […] Subsequent to induction of apoptosis, cells were incubated for 40 minutes with rottlerin, at a concentration of 1 μM, were then subjected to treatment with DDC at a concentration of […] and immediately taken for FACS analysis (FIG. 3).
Inhibition of PLS activity in the apoptotic cells was also achieved by reduction of ambient Ca^2+ levels. Following induction of apoptosis, both control and apoptotic cells (1×10^7 cells) were subjected to Ca^2+-deprivation, by co-treatment with BAPTA (20 μM) and EGTA (1 mM) for 30 minutes. Cells were then treated with DDC (250 μM) and propidium iodide (PI). Binding of DDC to these Ca^2+-deprived cells and to control, Ca^2+-treated (1 mM) cells was analyzed by FACS, and the dot plot is shown in FIG. 4A. The lower left quadrant in each dot plot represents the healthy fraction of cells. The lower right quadrant represents the newly-formed population of cells in the early stages of apoptosis, still maintaining membrane integrity but characterized by activation of PLS. As shown, these cells manifest DDC binding while excluding PI. The upper right quadrant represents cells in the late stages of apoptosis, characterized by disintegration of the plasma membrane, thus unselectively permeable to compounds including PI, that is normally excluded from healthy cells.
Induction of apoptosis is a major pathway for the activation of PLS. […] For this purpose, apoptosis was triggered in cultured Jurkat cells by treatment with anti-Fas antibody. […]

Structure (SMILES): CN(C)c1cccc2c(S(=O)(=O)NC(CSSCC(NS(=O)(=O)c3cccc4c(N(C)C)cccc34)C(=O)O)C(=O)O)cccc12 (centres unmarked) [DDC]
- Positive early apoptotic events for DDC (apoptotic culture regarded as 100%) ([1]; control non-treated cells, mean of 3 experiments, DDC 250 μM 5 min): 36%
- Positive early apoptotic events for DDC (apoptotic culture regarded as 100%) ([1]; staurosporine 1 μM 4 h apoptotic cells): 100%
- Positive early apoptotic events for DDC (apoptotic culture regarded as 100%) ([1]; staurosporine-treated cells, Ca2+-deprivation): 14%
- Positive early apoptotic events for DDC (apoptotic culture regarded as 100%) ([1]; staurosporine-treated cells, rottlerin treatment): 30%
- Binding of DDC to cells in the late stages of apoptosis upon calcium deprivation ([2]; PI-permeable cells, BAPTA + EGTA): no effect of PLS inhibition; also recorded: did not affect binding of DDC
- Cells in the early stages of apoptosis binding DDC (right lower quadrant) ([2]; apoptotic cells (anti-Fas 0.1 μg/ml 3 h), absence of rottlerin): 46%
- Uptake of DDC by cells in the early stages of apoptosis ([2]; apoptotic cells (anti-Fas), with Ca2+ 1 mM): 38.4%
- Uptake of DDC by cells in the early stages of apoptosis ([2]; apoptotic cells, Ca2+-deprivation: BAPTA 20 μM + EGTA 1 mM, 30 min): 8.89%
- Cells in the early stages of apoptosis binding DDC (right lower quadrant) ([2]; apoptotic cells, rottlerin 1 μM (PKCδ inhibitor), 40 min): 7.9%
- Uptake of DDC (early-apoptosis quadrant) ([2]; control cells, with Ca2+ 1 mM): 4.11%
- DDC binding to cells in the late stages of apoptosis in response to rottlerin ([2]; right upper quadrant (DDC and PI positive), rottlerin 1 μM): did not manifest alterations in DDC binding
